# Assay results published in ChEMBL document CHEMBL2331134, “Design and synthesis of 3,5-diaryl-4,5-dihydro-1H-pyrazoles as new tyrosinase inhibitors” (Bioorg Med Chem, 2013).
# Activity calls are given as the source filed them. The calls are words filed in the database; no cut-off is given here.
# Assays:
# Tyrosinase = biological target: T1, Tyrosinase (Agaricus bisporus, UniProt O42713)
# T1 sequence (O42713 whole entry): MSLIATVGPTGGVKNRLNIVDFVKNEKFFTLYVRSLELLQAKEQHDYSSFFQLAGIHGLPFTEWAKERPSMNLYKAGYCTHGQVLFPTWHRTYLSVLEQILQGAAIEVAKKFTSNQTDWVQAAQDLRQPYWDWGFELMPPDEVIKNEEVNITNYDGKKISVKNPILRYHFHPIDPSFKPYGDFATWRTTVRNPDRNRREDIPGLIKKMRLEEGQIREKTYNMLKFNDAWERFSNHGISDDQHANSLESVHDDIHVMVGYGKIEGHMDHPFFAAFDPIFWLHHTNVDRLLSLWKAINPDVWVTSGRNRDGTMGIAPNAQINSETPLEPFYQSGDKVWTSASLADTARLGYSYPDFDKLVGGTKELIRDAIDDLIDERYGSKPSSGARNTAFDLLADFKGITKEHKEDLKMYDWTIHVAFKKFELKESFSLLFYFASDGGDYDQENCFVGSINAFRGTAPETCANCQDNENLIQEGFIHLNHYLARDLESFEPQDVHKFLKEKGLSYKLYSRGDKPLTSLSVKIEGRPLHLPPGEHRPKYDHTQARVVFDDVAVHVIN
# Description: Inhibition of mushroom tyrosinase assessed as reduction in diphenolase activity using L-DOPA substrate pre-incubated for 20 mins at 30 degC
# [1] = biological target: T2, Tyrosinase (Agaricus bisporus) (UniProt O42713); experiment: Competitive inhibition of mushroom tyrosinase assessed as reduction in L-DOPA oxidation by Lineweaver-Burk plot
# T2 sequence (whole entry): T1 sequence (O42713 whole entry)
IC50 (Tyrosinase) [µM],inhibition [1],SMILES
11.8,–,Oc1ccc(C2CC(c3ccccc3O)=NN2)cc1 (stereo unspecified)
> 200,–,COc1cc(C2CC(c3ccc(O)cc3)=NN2C(C)=O)ccc1O (stereo unspecified)
2,–,COc1cc(OC)cc(-c2nc(-c3ccc(O)cc3O)cs2)c1
–,Active,O=C(OCc1ccc(O)cc1)c1ccc(O)cc1O
> 200,–,COc1cc(O)ccc1C1CC(c2ccccc2O)=NN1C(C)=O (stereo unspecified)
–,Active,O=C1CC(c2ccc(O)cc2O)Oc2cc(O)cc(O)c21 (stereo unspecified)
13.1,–,CC(=O)N1N=C(c2ccccc2O)CC1c1ccc(O)cc1 (stereo unspecified)
0.837,Active,Oc1cccc(C2CC(c3ccc(O)cc3O)=NN2)c1 (stereo unspecified)
161,–,CC(=O)N1N=C(c2cc(O)cc(O)c2)CC1c1ccc(O)cc1 (stereo unspecified)
0.301,Active,COc1cc(C2CC(c3ccc(O)cc3O)=NN2C(C)=O)ccc1O (stereo unspecified)
13.4,–,COc1cc(C2CC(c3ccccc3O)=NN2C(C)=O)ccc1O (stereo unspecified)
2.43,–,COc1cc(C2CC(c3ccc(O)cc3O)=NN2)ccc1O (stereo unspecified)
> 200,–,CC(=O)N1N=C(c2ccccc2O)CC1c1cccc(O)c1 (stereo unspecified)
> 200,–,CC(=O)N1N=C(c2ccccc2O)CC1c1ccc(O)c(O)c1 (stereo unspecified)
3.51,–,CC(=O)N1N=C(c2ccc(O)cc2)CC1c1ccc(O)cc1 (stereo unspecified)
–,Active,O=C(/C=C/c1ccc(O)cc1O)c1ccc(O)cc1O
1.69,Active,CC(=O)N1N=C(c2ccc(O)cc2O)CC1c1ccc(O)cc1 (stereo unspecified)
0.882,Active,Oc1ccc(C2CC(c3ccc(O)cc3O)=NN2)cc1 (stereo unspecified)
> 200,–,O=c1cc(-c2ccc(O)cc2O)oc2cc(O)cc(O)c12 [NORARTOCARPETIN]
0.863,Active,CC(=O)N1N=C(c2ccc(O)cc2O)CC1c1cccc(O)c1 (stereo unspecified)
> 200,–,CC(=O)N1N=C(c2cc(O)cc(O)c2)CC1c1cccc(O)c1 (stereo unspecified)
2.74,Active,CC(=O)N1N=C(c2ccc(O)cc2O)CC1c1ccc(O)c(O)c1 (stereo unspecified)
147,–,CC(=O)N1N=C(c2ccc(O)cc2)CC1c1cccc(O)c1 (stereo unspecified)
1.07,–,CC(=O)N1N=C(c2ccc(O)cc2)CC1c1ccc(O)c(O)c1 (stereo unspecified)
> 200,–,CC(=O)N1N=C(c2ccc(O)cc2O)CC1c1ccc(O)c([N+](=O)[O-])c1 (stereo unspecified)
